# Measured values from US7553642B2, “Branched neutral amino acid transporters acting as single molecule” (Human Cell Systems, Inc., priority 2003, dated 2009).
# Legend:
# Assay type in all cases: cell-based
# human LAT3 [1] = target: T1, human LAT3 (Homo sapiens, UniProt O75387); assay: Uptake of radiolabeled amino acids by Xenopus oocytes injected with human LAT3 cRNA
# T1 construct: An expression plasmid vector pSPORT1 containing cDNA of human LAT3 was cleaved by a restriction enzyme NotI, and cRNA; expressed in transfected cells; host or cells: Xenopus laevis oocytes injected with cRNA
# T1 sequence (O75387 1-559): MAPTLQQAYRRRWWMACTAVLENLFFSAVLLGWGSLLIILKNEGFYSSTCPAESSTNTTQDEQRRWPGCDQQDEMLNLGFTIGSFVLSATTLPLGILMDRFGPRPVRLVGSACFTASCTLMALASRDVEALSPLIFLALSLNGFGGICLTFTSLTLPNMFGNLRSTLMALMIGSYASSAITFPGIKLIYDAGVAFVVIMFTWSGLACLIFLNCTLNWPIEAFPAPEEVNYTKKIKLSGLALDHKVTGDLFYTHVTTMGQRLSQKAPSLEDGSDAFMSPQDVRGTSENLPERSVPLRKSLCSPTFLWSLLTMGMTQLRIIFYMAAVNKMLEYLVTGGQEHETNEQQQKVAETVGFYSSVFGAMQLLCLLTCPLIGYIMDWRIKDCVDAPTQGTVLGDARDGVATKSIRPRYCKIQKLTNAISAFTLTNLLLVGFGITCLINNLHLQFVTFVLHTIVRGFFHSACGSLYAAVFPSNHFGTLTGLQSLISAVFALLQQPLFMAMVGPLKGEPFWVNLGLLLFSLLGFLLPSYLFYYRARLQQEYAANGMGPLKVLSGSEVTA
# Experimental: The substrate uptake by the injected oocytes using leucine as a substrate was carried out according to the method described by Kanai et al. (Kanai and Hediger, Nature, Vol. 360, 467-471 (1992)), as follows. The oocytes was cultured for 30 minutes in the Na^+-free uptake solution (100 mM of choline chloride, 2 mM of potassium chloride, 1.8 mM of calcium chloride, 1 mM of magnesium chloride, 5 mM of HEPES, pH 7.4) using ^14C-leucine (100 μM) as a substrate, and uptake rate of the substrate was measured by counting radioactivity in the cell.
# The oocytes was injected with 25 ng of human LAT3 gene cRNA to be expressed thereby, and cultured for 3 days.
# The experiment of the leucine uptake was carried out as follows according to the above described method in Example 1 (1). That is, the oocytes injected with the cRNA of the human LAT3 gene or water as a control were cultured for 10 minutes in Na^+-free uptake solution containing ^14C-leucine (100 μM) (refer to Example 1 (1)), and measured uptake of radioactivity into the cells.
# The leucine uptake was conducted at the leucin concentrations of 1, 3, 10, 30, 60, 100, 200, 400, 1000, 2000 and 3000 μM using the oocytes injected with cRNA of the human LAT3 gene according to the above-described method in Example 3 (1). […] In addition, it was clarified that the leucine transport mediated by LAT3 is composed of high affinity component and low affinity component (FIG. 6, inserted figure).
# An uptake experiment of various amino acids and amino acid analogs was carried out using the oocytes injected with cRNA of the human LAT3 gene according to the above-described method in Example 3 (1), provided that various radiolabeled amino acids were utilized in place of the ^14C-leucine.
# human LAT3 [2] = target: T1, human LAT3; assay: 14C-leucine efflux from preloaded oocytes injected with human LAT3 cRNA; settings: preloaded 100 nl of 400 μM 14C-leucine; absence of extracellular leucine; Na+-free; room temperature
# Experimental: The oocytes injected with cRNA of the human LAT3 gene was injected with 100 nl of 400 μM ^14C-leucine (2 nCi). After washing the oocytes with the leucine-free and Na^+-free uptake solution which was previously cooled with ice, the oocytes were transferred to the Na^+-free uptake solution with or without leucine (1 mM) at room temperature (18 to 22° C.), then efflux of ^14C-leucine was measured. As a control, 100 nl of 400 μM ^14C-leucine (2 nCi) was injected into the oocytes injected with water instead of cRNA of the human LAT3 gene, and the extracellular efflux of ^14C-leucine was measured by the same procedures as described above.
# mouse LAT3 = target: T2, mouse LAT3 (Mus musculus, UniProt Q8BSM7); assay: Leucine uptake by oocytes injected with mouse LAT3 cRNA; settings: 14C-L-leucine, method of Example 3 (1)
# T2 construct: expressed in transfected cells; host or cells: Xenopus laevis oocytes injected with cRNA (IMAGE clone 4910149)
# Experimental: The cDNA of mouse LAT3 obtained by Example 2 was cleaved at NotI site, and cRNA was prepared using SP6 RNA polymerase. The cRNA of the mouse LAT3 gene was expressed in the oocytes and the ^14C-L-leucine uptake was measured.
# The oocytes was injected with 25 ng of cRNA of the mouse LAT3 gene to be expressed thereby, and cultured for 3 days. An experiment of the leucine uptake by the oocytes injected with cRNA of the mouse LAT3 gene was carried out according to the method in Example 3 (1).
# mouse LAT4 = target: T3, mouse LAT4 (Mus musculus, UniProt Q8CGA3, K402E/P237S); assay: Uptake of radiolabeled amino acids by Xenopus oocytes injected with mouse LAT4 cRNA
# T3 construct: An expression plasmid vector pcDNA 3.1(+) containing cDNA of mouse LAT4 was cleaved by a restriction enzyme XbaI; expressed in transfected cells; host or cells: Xenopus laevis oocytes injected with cRNA (from pcDNA3.1(+), IMAGE clone 2235970)
# Experimental: The oocytes was injected with 25 ng of cRNA of the mouse LAT4 gene to be expressed thereby, and cultured for 3 days.
# An experiment of leucine uptake was carried out as follows according to the above-described method in Example 3 (1). That is, the oocytes injected with cRNA of the mouse LAT4 gene or water as a control were cultured for 10 minutes in the Na^+-free uptake solution containing […] (100 μM) (refer to Example 3 (1)), and measured the uptake of radioactivity into the cells.
# The leucine uptake was conducted at the leucin concentrations of 0.01, 0.03, 0.1, 0.3, 1, 3 and 10 mM, using the oocytes injected with cRNA of the mouse LAT4 gene according to the above-described method in Example 3 (1). […] In addition, it was clarified that the leucine transport mediated by LAT4 is composed of a high affinity component and a low affinity component, just like the leucin uptake mediated by LAT3.
# An uptake experiment of various amino acids and amino acid analogs was carried out using the oocytes injected with cRNA of the mouse LAT4 gene according to the above-described method in Example 3 (1). In this regard, in place of ^14C-leucine, various radiolabeled amino acids were utilized.
# human LAT4 = target: T4, human LAT4 (Homo sapiens, UniProt Q8N370); assay: Leucine uptake by oocytes injected with human LAT4 cRNA; settings: 14C-L-leucine, method of Example 3 (1)
# T4 construct: expressed in transfected cells; host or cells: Xenopus laevis oocytes injected with cRNA (IMAGE clone 2783525)
# Experimental: The cDNA of human LAT4 gene obtained by Example 4 was cleaved at XhoI site, and the cRNA was prepared using T3 RNA polymerase. The cRNA of the human LAT4 gene was expressed in the oocytes and the ^14C-L-leucine uptake was measured.
# The oocytes was injected with 25 ng of cRNA of the human LAT4 gene, and cultured for […]. Experiment of the leucine uptake by the oocytes injected with cRNA of the human LAT4 gene was carried out according to the method of Example 3 (1).
# [3] = 14C-leucine 100 μM, Na+-free uptake solution, 10 minutes
# T3 sequence (Q8CGA3 whole entry P237S/K402E): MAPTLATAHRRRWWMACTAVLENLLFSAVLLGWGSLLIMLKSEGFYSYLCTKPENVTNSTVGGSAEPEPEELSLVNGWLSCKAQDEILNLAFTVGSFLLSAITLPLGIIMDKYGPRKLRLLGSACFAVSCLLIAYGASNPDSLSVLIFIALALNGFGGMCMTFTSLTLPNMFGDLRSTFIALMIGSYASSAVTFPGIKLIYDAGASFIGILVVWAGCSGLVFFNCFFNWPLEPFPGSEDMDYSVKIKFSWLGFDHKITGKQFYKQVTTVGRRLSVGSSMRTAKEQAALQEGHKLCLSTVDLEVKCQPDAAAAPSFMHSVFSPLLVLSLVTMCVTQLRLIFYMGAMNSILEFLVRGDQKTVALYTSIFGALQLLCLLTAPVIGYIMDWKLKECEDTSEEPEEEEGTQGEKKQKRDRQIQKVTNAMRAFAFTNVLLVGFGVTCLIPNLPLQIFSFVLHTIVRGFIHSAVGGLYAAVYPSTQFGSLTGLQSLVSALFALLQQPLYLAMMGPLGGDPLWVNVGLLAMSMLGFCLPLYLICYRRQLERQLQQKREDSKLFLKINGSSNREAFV
# T4 sequence (Q8N370 1-573 isoform Q8N370-3): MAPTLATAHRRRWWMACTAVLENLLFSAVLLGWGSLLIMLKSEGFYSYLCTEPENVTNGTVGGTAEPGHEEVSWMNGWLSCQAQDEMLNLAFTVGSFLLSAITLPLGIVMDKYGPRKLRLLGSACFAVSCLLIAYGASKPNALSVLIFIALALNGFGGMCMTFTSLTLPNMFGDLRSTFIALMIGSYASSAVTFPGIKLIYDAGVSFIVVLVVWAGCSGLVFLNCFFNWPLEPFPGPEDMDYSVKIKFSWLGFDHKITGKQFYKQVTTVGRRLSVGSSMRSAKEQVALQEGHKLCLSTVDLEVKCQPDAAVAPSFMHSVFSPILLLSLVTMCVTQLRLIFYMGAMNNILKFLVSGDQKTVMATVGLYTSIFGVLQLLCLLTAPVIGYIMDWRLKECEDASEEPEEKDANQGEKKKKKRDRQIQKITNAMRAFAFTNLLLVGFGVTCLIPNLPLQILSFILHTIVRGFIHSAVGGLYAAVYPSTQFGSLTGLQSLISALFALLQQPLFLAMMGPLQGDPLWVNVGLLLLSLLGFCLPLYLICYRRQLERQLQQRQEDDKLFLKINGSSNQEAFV
# T2 sequence (Q8BSM7 whole entry): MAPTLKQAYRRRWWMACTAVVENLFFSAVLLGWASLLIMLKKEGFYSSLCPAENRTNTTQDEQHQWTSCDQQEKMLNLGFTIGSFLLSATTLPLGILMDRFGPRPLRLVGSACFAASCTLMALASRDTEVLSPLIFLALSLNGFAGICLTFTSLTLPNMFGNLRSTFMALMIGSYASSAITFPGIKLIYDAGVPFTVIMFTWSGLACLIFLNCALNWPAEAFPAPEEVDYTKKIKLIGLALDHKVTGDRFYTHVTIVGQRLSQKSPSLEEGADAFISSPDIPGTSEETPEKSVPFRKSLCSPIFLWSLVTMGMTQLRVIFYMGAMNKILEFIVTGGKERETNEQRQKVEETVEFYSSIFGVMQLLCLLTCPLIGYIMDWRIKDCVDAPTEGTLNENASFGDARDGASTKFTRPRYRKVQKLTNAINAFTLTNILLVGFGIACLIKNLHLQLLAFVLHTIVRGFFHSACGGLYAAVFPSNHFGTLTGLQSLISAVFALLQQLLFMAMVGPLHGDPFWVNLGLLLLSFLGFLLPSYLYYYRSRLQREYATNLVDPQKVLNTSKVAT
compound,measurement,setting,value
CC(C)C[C@H](N)C(=O)O [L-leucine],uptake of radiolabeled substrate into oocytes expressing human LAT3,"human LAT3 [1]; 14C-labeled substrate in place of 14C-leucine, Na+-free uptake solution, 10 minutes",a large amount of uptake
same,leucine uptake in oocytes expressing LAT3 compared with water-injected,human LAT3 [1]; [3],significant augmentation
same,concentration dependence of leucine uptake (human LAT3),human LAT3 [1]; leucine 1 to 3000 μM,concentration-dependent and saturable
same,efflux of 14C-leucine from oocytes expressing human LAT3,human LAT3 [2],significant efflux
same,leucine uptake in oocytes expressing mouse LAT3 compared with water-injected,mouse LAT3,significant augmentation
same,uptake of radiolabeled substrate into oocytes expressing mouse LAT4,mouse LAT4; 14C-labeled substrate in place of 14C-leucine,a large amount of uptake
same,leucine uptake in oocytes expressing mouse LAT4 compared with water-injected,mouse LAT4; [3],significant augmentation
same,concentration dependence of leucine uptake (mouse LAT4),mouse LAT4; leucine 0.01 to 10 mM,concentration-dependent and saturable
same,leucine uptake in oocytes expressing human LAT4 compared with water-injected,human LAT4,significant augmentation
